# Experimental data reported in patent US8575193B2, “N-substituted tetrahydroisoquinoline/isoindoline hydroxamic acid compounds” (4SC AG, priority 2008, dated 2013).
# Structures can show the parent of a compound that is named as a salt.
# Assays:
# [1] = molecular target: T1, rHDAC3 (Homo sapiens, UniProt O15379); assay: rHDAC3 enzymatic assay (recombinant FLAG-HDAC3); assay type: biochemical; conditions: FLAG-HDAC3 from insect cells; 6 μM Ac-NH-GGK(Ac)-AMC, 2 h at 30° C.; read-out: rHDAC3 [pIC50] (converted)
# T1 construct: FLAG; made in house; host or cells: baculovirus-infected Sf21 insect cells
# T1 sequence (O15379 whole entry): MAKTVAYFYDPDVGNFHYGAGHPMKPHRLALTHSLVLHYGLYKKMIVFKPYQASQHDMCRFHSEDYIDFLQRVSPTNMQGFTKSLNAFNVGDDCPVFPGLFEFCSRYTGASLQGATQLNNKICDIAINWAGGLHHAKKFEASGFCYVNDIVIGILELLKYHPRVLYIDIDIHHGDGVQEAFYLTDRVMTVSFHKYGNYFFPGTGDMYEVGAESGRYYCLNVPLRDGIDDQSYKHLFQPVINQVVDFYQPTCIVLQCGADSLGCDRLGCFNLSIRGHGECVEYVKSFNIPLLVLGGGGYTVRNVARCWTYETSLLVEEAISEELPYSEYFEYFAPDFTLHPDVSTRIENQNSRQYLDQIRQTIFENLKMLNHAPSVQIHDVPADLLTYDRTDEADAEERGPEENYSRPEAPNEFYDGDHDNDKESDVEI
# T1 sequence (Q9Y618 whole entry partner): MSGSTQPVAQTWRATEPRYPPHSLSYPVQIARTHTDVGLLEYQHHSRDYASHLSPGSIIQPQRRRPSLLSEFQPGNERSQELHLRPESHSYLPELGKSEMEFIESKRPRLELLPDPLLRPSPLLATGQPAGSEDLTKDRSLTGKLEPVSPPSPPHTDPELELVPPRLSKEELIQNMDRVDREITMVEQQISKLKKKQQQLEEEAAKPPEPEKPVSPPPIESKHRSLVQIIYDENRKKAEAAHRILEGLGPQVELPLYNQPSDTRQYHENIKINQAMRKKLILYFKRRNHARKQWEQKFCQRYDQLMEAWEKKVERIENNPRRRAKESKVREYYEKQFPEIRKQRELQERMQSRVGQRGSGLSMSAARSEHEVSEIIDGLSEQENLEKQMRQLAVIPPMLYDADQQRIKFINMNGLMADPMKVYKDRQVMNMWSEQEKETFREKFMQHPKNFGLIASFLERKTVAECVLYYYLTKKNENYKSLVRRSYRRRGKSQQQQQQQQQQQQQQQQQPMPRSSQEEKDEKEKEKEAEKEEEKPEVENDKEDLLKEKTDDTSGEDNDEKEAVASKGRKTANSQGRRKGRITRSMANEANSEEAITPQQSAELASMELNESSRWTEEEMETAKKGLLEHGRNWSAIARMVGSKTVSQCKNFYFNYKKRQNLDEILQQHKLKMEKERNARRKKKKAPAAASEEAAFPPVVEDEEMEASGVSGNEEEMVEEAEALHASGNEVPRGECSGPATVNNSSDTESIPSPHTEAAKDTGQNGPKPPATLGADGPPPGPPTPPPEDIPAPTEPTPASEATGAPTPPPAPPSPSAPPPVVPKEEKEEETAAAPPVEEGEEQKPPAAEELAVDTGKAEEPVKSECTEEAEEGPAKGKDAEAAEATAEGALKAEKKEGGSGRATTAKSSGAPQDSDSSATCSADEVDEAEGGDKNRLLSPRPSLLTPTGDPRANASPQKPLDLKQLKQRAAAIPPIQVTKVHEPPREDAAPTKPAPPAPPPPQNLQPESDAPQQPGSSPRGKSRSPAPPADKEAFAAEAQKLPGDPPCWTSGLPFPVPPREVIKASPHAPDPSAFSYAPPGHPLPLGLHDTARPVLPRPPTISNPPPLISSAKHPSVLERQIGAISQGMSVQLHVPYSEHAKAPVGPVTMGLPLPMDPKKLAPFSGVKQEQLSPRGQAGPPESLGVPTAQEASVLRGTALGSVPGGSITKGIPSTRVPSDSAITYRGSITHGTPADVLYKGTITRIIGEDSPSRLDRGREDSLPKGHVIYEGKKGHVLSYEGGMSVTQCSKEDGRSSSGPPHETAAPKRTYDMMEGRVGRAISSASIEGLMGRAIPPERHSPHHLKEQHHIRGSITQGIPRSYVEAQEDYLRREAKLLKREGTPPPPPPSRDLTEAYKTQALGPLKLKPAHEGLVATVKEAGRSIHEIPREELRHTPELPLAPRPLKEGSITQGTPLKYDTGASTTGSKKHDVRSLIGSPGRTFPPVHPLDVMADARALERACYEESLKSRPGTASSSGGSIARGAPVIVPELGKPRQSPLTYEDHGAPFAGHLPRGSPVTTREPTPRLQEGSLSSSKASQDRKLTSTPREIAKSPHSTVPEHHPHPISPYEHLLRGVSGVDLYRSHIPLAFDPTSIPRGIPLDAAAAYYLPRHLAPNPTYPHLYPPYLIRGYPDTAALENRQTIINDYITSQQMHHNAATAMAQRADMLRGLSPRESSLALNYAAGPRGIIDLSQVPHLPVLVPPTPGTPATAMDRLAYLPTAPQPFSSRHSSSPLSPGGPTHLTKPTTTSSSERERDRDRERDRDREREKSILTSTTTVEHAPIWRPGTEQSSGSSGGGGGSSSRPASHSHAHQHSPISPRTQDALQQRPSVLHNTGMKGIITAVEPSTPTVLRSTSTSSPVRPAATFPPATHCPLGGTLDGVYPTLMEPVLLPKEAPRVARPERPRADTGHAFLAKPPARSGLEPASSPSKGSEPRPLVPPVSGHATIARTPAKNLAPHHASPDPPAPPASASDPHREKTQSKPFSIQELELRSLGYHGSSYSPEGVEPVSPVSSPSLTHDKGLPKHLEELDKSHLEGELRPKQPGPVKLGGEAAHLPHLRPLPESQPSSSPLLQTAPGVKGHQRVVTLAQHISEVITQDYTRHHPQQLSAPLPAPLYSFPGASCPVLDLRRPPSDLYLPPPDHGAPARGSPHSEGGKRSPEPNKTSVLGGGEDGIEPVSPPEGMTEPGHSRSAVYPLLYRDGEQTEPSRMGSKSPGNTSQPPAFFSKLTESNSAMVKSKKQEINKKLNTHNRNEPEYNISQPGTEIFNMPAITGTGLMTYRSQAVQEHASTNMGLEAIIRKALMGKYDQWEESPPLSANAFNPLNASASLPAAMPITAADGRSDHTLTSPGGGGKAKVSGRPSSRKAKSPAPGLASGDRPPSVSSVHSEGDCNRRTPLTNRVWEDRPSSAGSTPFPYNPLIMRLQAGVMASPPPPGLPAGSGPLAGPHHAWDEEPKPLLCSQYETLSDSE
# Excerpt: Human HDAC1 and HDAC6 fused with the FLAG epitope are stably expressed in HEK293 cells while human HDAC3 and HDAC8 fused with the FLAG epitope are overexpressed in baculo-virus infected insect (Sf21) cells. To ensure stability of FLAG-HDAC3 the SMRT protein is co-expressed in the corresponding insect cells. […] FLAG-HDAC3 and FLAG-HDAC8 are also purified by M2-agarose affinity chromatography after mass cultivation of the insect cells and cell lysis.
# The HDAC enzyme activity assay is done as described by Wegener et al. (Chem. & Biol. 10, 61-68, 2003). Briefly 40 μl of a 1:100 dilution (=0.4 μl) nuclear HeLa extract (mixture of class I and II HDACs), 29 μl enzyme buffer (15 mM Tris HCl pH 8.1, 0.25 mM EDTA, 250 mM NaCl, 10% v:v glycerol) and 1 μl test compound are added to a well of a 96 well microtiter plate and reaction started by addition of 3 μl substrate (Ac-NH-GGK(Ac)-AMC; final concentration 25 μM and final volume […]). […] After incubation at room temperature for further 40 min, fluorescence is measured using a Wallac Victor 1420 multilabel counter (Ex 355 nm, Em 460 nm) for quantification of AMC (7-amino-4-methylcoumarin) generated by trypsine cleavage of the deacetylated peptide. […] The corresponding pIC50 values of the compounds for HDAC inhibitory activity are determined from the concentration-effect curves by means of non-linear regression (Graphpad Prism software).
# The HDAC1, HDAC3 and HDAC6 enzymatic assays are done with slight modifications with recombinant FLAG-HDAC1 and FLAG-HDAC6 proteins isolated from HEK293 cell lysates or recombinant FLAG-HDAC3 isolated from insect cells, respectively. The HDAC8 enzymatic assay using recombinant FLAG-HDAC8 isolated from insect cells is done with a different substrate. About 4.5 ng/well FLAG-HDAC1 and 3.1 ng/well FLAG-HDAC6 (dependent on batches and specific activity) are incubated with 6 μM or 10 μM Ac-NH-GGK(Ac)-AMC substrate, respectively, for 3 h at 30° C. About 1.7 ng/well FLAG-HDAC3 is incubated with 6 μM Ac-NH-GGK(Ac)-AMC substrate for 2 h at 30° C., while approximately 130 ng/well FLAG-HDAC8 is incubated with 50 μM Ac-RHK(Ac)K(Ac)-AMC substrate for 3 h at 30° C. Termination of the reaction and all further steps are done as described for HeLa cell nuclear extracts as a source for HDAC enzymatic activity. The corresponding pIC50 values of the compounds for HDAC1, HDAC3, HDAC6 and HDAC8 inhibitory activity are determined from the concentration-effect curves by means of non-linear regression.
# [2] = Cellular cytotoxicity assay (Alamar Blue/Resazurin), HeLa; assay type: cell-based; conditions: human, HeLa cells, 72 hours incubation, Resazurin, read-out: HeLa Cytotoxicity [pIC50] (converted)
# Description: The anti-proliferative activity of the compounds as described herein, is evaluated with various solid and hematological cancer cell lines using the Alamar Blue (Resazurin) cell viability assay (O'Brien et al, Eur J Biochem 267, 5421-5426, 2000). Resazurin is reduced to the fluorescent resorufin by cellular dehydrogenase activity, correlating with viable, proliferating cells. Test compounds are dissolved as 20 mM solutions in dimethylsulfoxide (DMSO) and subsequently diluted in semi-logarithmic steps. The cancer cell lines are seeded into 96 well flat bottom plates at respective cell densities in a volume of 200 μl per well to allow continuous proliferation during the experiment. 24 hours after seeding 1 μl each of the compound dilutions is added into each well of the 96 well plate. Wells containing untreated control cells are filled with 200 μl DMEM medium containing 0.5% v:v DMSO. The cells are then incubated with the substances for 72 hours at 37° C. in a humidified atmosphere containing 5% carbon dioxide. To determine the viability of the cells, 20 μl of a Resazurin solution (Sigma; 90 mg/l) are added. After 4 hours incubation at 37° C. the fluorescence is measured at an extinction of 544 nm and an emission of 590 nm. For the calculation of the cell viability the emission value from untreated cells is set as 100% viability and the emission rates of treated cells are set in relation to the values of untreated cells. Viabilities are expressed as % values. The corresponding pIC50 values of the compounds for cytotoxic activity are determined from the concentration-effect curves by means of non-linear regression.
SMILES,IC50 [1],IC50 at 72 h [2]
"CC(=O)N1CCc2cc(C(=O)NO)ccc2C1 [Example 12, 2-Acetyl-N-hydroxy-1,2,3,4-tetrahydroisoquinoline-6-carboxamide]",10 to 100 µM,> 100 µM
"Cc1nccn1CC(=O)N1CCc2cc(C(=O)NO)ccc2C1 [Example 10, N-Hydroxy-2-[(2-methyl-1H-imidazol-1-yl)acetyl]-1,2,3,4-tetrahydroisoquinoline-6-carboxamide hydrochloride]",10 to 100 µM,> 100 µM
"O=C(NO)c1ccc2c(c1)CCN(C(=O)C1CCOC1)C2 (centres unmarked) [Example 13, N-Hydroxy-2-(tetrahydrofuran-3-ylcarbonyl)-1,2,3,4-tetrahydroisoquinoline-6-carboxamide]",10 to 100 µM,> 100 µM
"COCCCOC(=O)N1CCc2cc(C(=O)NO)ccc2C1 [Example 6, 3-Methoxypropyl-6-(hydroxycarbamoyl)-3,4-dihydroisoquinoline-2(1H)-carboxylate]",10 to 100 µM,> 100 µM
"CN(C)CCCC(=O)N1CCc2cc(C(=O)NO)ccc2C1 [Example 9, 2-[4-(Dimethylamino)butanoyl]-N-hydroxy-1,2,3,4-tetrahydroisoquinoline-6-carboxamide hydrochloride]",10 to 100 µM,1 to 100 µM
"COCCCNC(=O)N1CCc2cc(C(=O)NO)ccc2C1 [Example 5, N6-Hydroxy-N2-(3-methoxypropyl)-3,4-dihydroisoquinoline-2,6(1H)-dicarboxamide]",10 to 100 µM,> 100 µM
"CNC(=O)N1CCc2cc(C(=O)NO)ccc2C1 [Example 4, N6-Hydroxy-N2-methyl-3,4-dihydroisoquinoline-2,6(1H)-dicarboxamide]",10 to 100 µM,> 100 µM
"O=C(NO)c1ccc2c(c1)CN(C(=O)C1CCOC1)CC2 (centres unmarked) [Example 20, N-Hydroxy-2-(tetrahydrofuran-3-ylcarbonyl)-1,2,3,4-tetrahydroisoquinoline-7-carboxamide]",10 to 100 µM,> 100 µM
"COCCOCC(=O)N1CCc2cc(C(=O)NO)ccc2C1 [Example 11, N-Hydroxy-2-[(2-methoxyethoxy)acetyl]-1,2,3,4-tetrahydroisoquinoline-6-carboxamide]",10 to 100 µM,> 100 µM
"O=C(NO)c1ccc2c(c1)CCN(C(=O)CCc1cccnc1)C2 [Example 7, N-Hydroxy-2-(3-pyridin-3-ylpropanoyl)-1,2,3,4-tetrahydroisoquinoline-6-carboxamide hydrochloride]",10 to 100 µM,> 100 µM
"O=C(NO)c1ccc2c(c1)CCN(C(=O)C1CCC1)C2 [Example 3, 2-(Cyclobutylcarbonyl)-N-hydroxy-1,2,3,4-tetrahydroisoquinoline-6-carboxamide]",10 to 100 µM,1 to 100 µM
"O=C(NO)c1ccc2c(c1)CCN(C(=O)C1CC1)C2 [Example 16, N-Hydroxy-2-(cyclopropylcarbonyl)-1,2,3,4-tetrahydroisoquinoline-6-carboxamide]",10 to 100 µM,> 100 µM
"CC#CC(=O)N1CCc2ccc(C(=O)NO)cc2C1 [Example 17, 2-But-2-ynoyl-N-hydroxy-1,2,3,4-tetrahydroisoquinoline-7-carboxamide]",10 to 100 µM,1 to 100 µM
"COc1ccc2[nH]c(C(=O)N3CCc4cc(C(=O)NO)ccc4C3)cc2c1 [Example 15, N-Hydroxy-2-[(5-methoxy-1H-indol-2-yl)carbonyl]-1,2,3,4-tetrahydroisoquinoline-6-carboxamide]",1 to 10 µM,1 to 100 µM

# The next lines start with results.
IC50 [1],SMILES,IC50 at 72 h [2]
1 to 10 µM,"O=C(NO)c1ccc2c(c1)CN(C(=O)NCCc1ccccc1)CC2 [Example 22, N7-Hydroxy-N2-(2-phenylethyl)-3,4-dihydroisoquinoline-2,7(1H)-dicarboxamide]",1 to 100 µM
10 to 100 µM,"O=C(NO)c1ccc2c(c1)CCN(C(=O)Cc1cccnc1)C2 [Example 8, N-Hydroxy-2-(pyridin-3-ylacetyl)-1,2,3,4-tetrahydroisoquinoline-6-carboxamide hydrochloride]",> 100 µM
10 to 100 µM,"O=C(NO)c1ccc2c(c1)CN(C(=O)Cc1cccnc1)CC2 [Example 19, N-Hydroxy-2-(pyridin-3-ylacetyl)-1,2,3,4-tetrahydroisoquinoline-7-carboxamide hydrochloride]",1 to 100 µM
1 to 10 µM,"O=C(NO)c1ccc2c(c1)CCN(C(=O)Cc1c[nH]c3ccccc13)C2 [Example 1, N-Hydroxy-2-(indol-3-ylacetyl)-1,2,3,4-tetrahydroisoquinoline-6-carboxamide hydrochloride]",1 to 100 µM
10 to 100 µM,"O=C(NO)c1ccc2c(c1)CN(C(=O)Cc1ccccn1)CC2 [Example 21, N-Hydroxy-2-(pyridin-2-ylacetyl)-1,2,3,4-tetrahydroisoquinoline-7-carboxamide hydrochloride]",1 to 100 µM
1 to 10 µM,"COc1ccc2[nH]c(C(=O)N3CCc4ccc(C(=O)NO)cc4C3)cc2c1 [Example 24, N-Hydroxy-2-[(5-methoxy-1H-indol-2-yl)carbonyl]-1,2,3,4-tetrahydroisoquinoline-7-carboxamide]",1 to 100 µM
1 to 10 µM,"O=C(NO)c1ccc2c(c1)CN(C(=O)Cc1c[nH]c3ccccc13)CC2 [Example 18, N-Hydroxy-2-(1H-indol-3-ylacetyl)-1,2,3,4-tetrahydroisoquinoline-7-carboxamide]",1 to 100 µM
10 to 100 µM,"Cc1ccc(C(=O)N2CCc3ccc(C(=O)NO)cc3C2)cc1 [Example 23, N-Hydroxy-2-(4-methylbenzoyl)-1,2,3,4-tetrahydroisoquinoline-7-carboxamide]",1 to 100 µM
